Reference: patent US6015831A, “Thiophene nitrone compounds” (Centaur Pharmaceuticals, Inc., priority 1999, dated 2000)

Columns and labels:
[1] = system: IL-1β release, THP-1 cells; experiment: Reduction of β-amyloid-induced increased release of interleukin-1β in LPS-stimulated THP-1 cells (ELISA); format: cell-based; settings: Homo sapiens, test compound 100 μM, LPS 0.5 μg/mL + Aβ(25-35) 5 μM, 48 hours, stated as alternative: this 'or' Aβ(1-42) sheet formation, tested in at least one test, read-out: inhibition of β-amyloid-induced increase release of interleukin-1β compared to the controls
Experimental: THP-1 cells, a human monocyte cell line from American Type Culture Collection, were grown in RPMI-1640 medium plus 10% fetal bovine serum (FBS, not heat-inactivated) in T-flasks. The medium was changed every two days by spinning down the cells (800 rpm, 5 minutes) and adding the same fresh medium. Alternatively, the cultures were maintained by supplementation with fresh medium. The cultures were maintained at a cell concentration ranging from between 1×10^5 and 1×10^6 cells/mL. Because sera may contain unknown factors which can affect macrophage/monocyte IL-1 production, the FBS was reduced to 5% for 24 hours. The FBS was further reduced to 2% over two days prior to starting each experiment. The cells were collected by centrifugation and resuspended in media containing 2% FBS. Cell numbers were calculated and cells were plated on 24-well plates (3×10^5 cells/0.6 mL/well). Cells were then treated with LPS (0.5 μg/mL) alone or in combination with Aβ peptides (5 μM). […]
1L-1β secretions into medium by LPS-stimulated THP-1 cells, in the presence or absence of amyloid peptides and a test compound, were assayed with a commercially available ELISA kit (R & D Systems). […] Color development was stopped with 2 N sulfuric acid and the optical density of the standard and the test samples was measured at 450 nm. The amount of IL-1β present in the samples were calculated based upon a standard curve. […]

synthetic Aβ(1-42) = experiment: Inhibition of Aβ beta-pleated sheet formation (thioflavin T fluorescence); format: biochemical; settings: test compound 10 μM, ThT 3 μM, PBS pH 6.0, 12 hours; stated as alternative: this 'or' IL-1β release, tested in at least one test
Source text: The deposition of amyloid β-peptide (Aβ) is associated with the development of Alzheimer's disease. See, for example, G. G. Glenner et al. (1984) Biochem. Biophys. Res. Commun., 120:885-890; and R. E. Tanzi (1989) Ann. Med, 21:91-94. Accordingly, compounds which effectively disrupt the formation of Aβ(1-40) or Aβ(1-42) beta-pleated sheets are potentially useful for preventing and/or reversing such amyloid deposits. Thioflavin T (ThT) is known to rapidly associate with beta-pleated sheets, particularly the aggregated fibrils of synthetic Aβ(1-42). This association gives rise to an excitation maximum at 440 nm and to an emission at 490 nm.
The experiments were performed using a CytoFluor II fluorescence plate reader having the following parameters:
Into each well was aliquoted 95 μl of ThT (3 μM) prepared in PBS (pH 6.0), 2 μL of the compound to be tested (10 μM) prepared with 0.05% of methylcellulose in PBS (pH 6.0), and 3 μL of Aβ(1-42)(3 μg) prepared with dH2 O. The fluorescence measurement began when the Aβ(1-42) was added and continued for a total of 12 hours. The percent inhibition of beta-pleated sheet formation was calculated from the relative fluorescence unit difference between aggregation in the presence and in the absence of the test compounds. Inhibition of Aβ(1-42) beta-pleated sheet formation by at least 30% compared to the controls is considered significant in this test.

**Q.** For `COc1ccc(Sc2ccc(C=[N+]([O-])C(C)(C)C)s2)cc1` [Example 1, α-[2-(4-Methoxyphenylthio)-5-thienyl]-N-tert-butylnitrone], which inhibition at 100 µM [1] is on record?
**A.** ≥ 30%

**Q.** And the “inhibition of Aβ(1-42) beta-pleated sheet formation compared to the controls” value (synthetic Aβ(1-42))?
**A.** at least 30%

**Q.** For `COc1ccc(Sc2ccc(C=[N+]([O-])C3CCCCC3)s2)cc1` [Example 2, α-[2-(4-Methoxyphenylthio)-5-thienyl]-N-cyclohexylnitrone], which inhibition at 100 µM [1] is on record?
**A.** ≥ 30%

**Q.** And the “inhibition of Aβ(1-42) beta-pleated sheet formation compared to the controls” value (synthetic Aβ(1-42))?
**A.** at least 30%
